Assay [1] deals with Endothelial cell. In words: Prevention of serum deprivation-induced reduction of vascular endothelial cell viability after 24 hrs by MTT assay. The assay is classed as functional, cell-based. As to conditions: Homo sapiens.
Assay [2] relates to Endothelial cell. Briefly: Prevention of FGF2 deprivation-induced reduction of vascular endothelial cell viability after 24 hrs by MTT assay. As to conditions: Homo sapiens. It is filed as functional, cell-based. A general note: Formazan colour is commonly taken as a measure of viable cells.
The test system of assay [3] is Endothelial cell. Briefly: Inhibition of DNA fragmentation in vascular endothelial cells at 40 ug/ml after 24 hrs. The assay is classed as functional, cell-based. As to conditions: Homo sapiens.
The nature of assay [4]: Inhibition of serum deprivation-induced vascular endothelial cell apoptosis assessed as apoptotic cell proportion at 40 ug/ml after 24 hrs by TUNEL assay. It is filed as functional, Homo sapiens. On the set-up: scale not given: the % may be the effect or the level left.
Assay [5] can be described thus: Inhibition of FGF2 deprivation-induced vascular endothelial cell apoptosis assessed as apoptotic cell proportion at 40 ug/ml after 24 hrs by TUNEL assay. On the set-up: scale not given: the % may be the effect or the level left. The assay is classed as functional, Homo sapiens.
Assay [6] in a line: Inhibition of serum deprivation-induced integrin beta-4 expression in vascular endothelial cells at 40 ug/ml after 24 hrs relative to control. It is filed as functional, Homo sapiens, Endothelial cell.
A short description of assay [7]: Inhibition of FGF2 deprivation-induced integrin beta-4 expression in vascular endothelial cells at 40 ug/ml after 24 hrs relative to control. The assay is classed as functional, Homo sapiens, Endothelial cell.
Assay [8] in a line: Inhibition of serum deprivation-induced ROS level in vascular endothelial cells at 30 ug/ml after 24 hrs relative to control. It is filed as functional, Homo sapiens, Endothelial cell.
Assay [9] in a line: Inhibition of FGF2 deprivation-induced ROS level in vascular endothelial cells at 30 ug/ml after 24 hrs relative to control. The assay is classed as functional, Homo sapiens, Endothelial cell.
Assay [10] deals with Endothelial cell. Briefly: Prevention of serum deprivation-induced reduction of vascular endothelial cell viability after 48 hrs by MTT assay. The assay is classed as functional, cell-based. The following applies: Homo sapiens.
Assay [11] deals with Endothelial cell. Briefly: Prevention of FGF2 deprivation-induced reduction of vascular endothelial cell viability after 48 hrs by MTT assay. As to conditions: Homo sapiens. The assay is classed as functional, cell-based.

Activity calls are given as the source filed them. No cut-off for these calls is given here.

With `O=C1OC(COc2ccccc2[N+](=O)[O-])CC1Cc1ccccc1` (stereo unspecified), the Activity entry in assay [1] was “Dose-dependent effect”; in assay [2], “Dose-dependent effect”; in assay [4], 9.89%; in assay [5], 9.89%; in assay [6], 33.8; in assay [7], 33.8. In addition, the Activity is 7.95 in assay [8], 7.95 in assay [9], “Dose-dependent effect” in assay [10] and “Dose-dependent effect” in [11]. In assay [3], the result was Active.
